Measured values taken from the supplement of paper PMC10307832.

Assays:
Experiment in all cases: relative viability (nuclei count vs DMSO), 5 days (fraction); higher = more cells survive
Kobe2602 + Dasatinib = compound: C1=CC(=CC=C1NC(=S)NNC2=C(C=C(C=C2[N+](=O)[O-])C(F)(F)F)[N+](=O)[O-])F [Kobe2602] + Cc1nc(Nc2ncc(C(=O)Nc3c(C)cccc3Cl)s2)cc(N2CCN(CCO)CC2)n1 [Dasatinib] (partner 0.075 µM)
Outline: (§1)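 Lung cancer cell lines were pin-tool dosed in 1536-well plates on the day after seeding, with either a lone drug or a fixed anchor-drug dose plus five library-drug doses (not always all listed) in √10 steps. Nuclei were counted on 4× images after 5 days. Relative viability is the ratio of treated-well to vehicle-well nuclei counts, with each value a median of duplicate plates.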

[1] = compound: COc1cc2nccc(Oc3ccc(NC(=O)C4(C(=O)Nc5ccc(F)cc5)CC4)cc3)c2cc1OC [Cabozantinib] + Nc1nc2[nH]cc(CCc3ccc(C(=O)N[C@@H](CCC(=O)O)C(=O)O)cc3)c2c(=O)[nH]1 [Pemetrexed] (partner 0.2 µM)
Outline: as §1

[2] = compound: COc1cc2nccc(Oc3ccc(NC(=O)C4(C(=O)Nc5ccc(F)cc5)CC4)cc3)c2cc1OC [Cabozantinib] + CC(=O)c1c(C)c2cnc(Nc3ccc(N4CCNCC4)cn3)nc2n(C2CCCC2)c1=O [Palbociclib] (partner 0.5 µM)
Outline: as §1

[3] = compound: COc1cc2nccc(Oc3ccc(NC(=O)C4(C(=O)Nc5ccc(F)cc5)CC4)cc3)c2cc1OC [Cabozantinib] + CC1(C)CCC(c2ccc(Cl)cc2)=C(CN2CCN(c3ccc(C(=O)NS(=O)(=O)c4ccc(N[C@H](CCN5CCOCC5)CSc5ccccc5)c(S(=O)(=O)C(F)(F)F)c4)cc3)CC2)C1 [Navitoclax] (partner 0.5 µM)
Outline: as §1

Cell Line	relative viability (Kobe2602 + Dasatinib; first compound 0.2 µM)	relative viability (Kobe2602 + Dasatinib; first compound 0.6325 µM)	relative viability (Kobe2602 + Dasatinib; first compound 2 µM)	relative viability (Kobe2602 + Dasatinib; first compound 6.325 µM)	relative viability (Kobe2602 + Dasatinib; first compound 20 µM)	relative viability ([1]; first compound 0.02 µM)	relative viability ([1]; first compound 0.06325 µM)	relative viability ([1]; first compound 0.2 µM)	relative viability ([1]; first compound 0.6325 µM)	relative viability ([1]; first compound 2 µM)	relative viability ([2]; first compound 0.02 µM)	relative viability ([2]; first compound 0.06325 µM)	relative viability ([2]; first compound 0.2 µM)	relative viability ([2]; first compound 0.6325 µM)	relative viability ([2]; first compound 2 µM)	relative viability ([3]; first compound 0.02 µM)	relative viability ([3]; first compound 0.06325 µM)	relative viability ([3]; first compound 0.2 µM)	relative viability ([3]; first compound 0.6325 µM)	relative viability ([3]; first compound 2 µM)
201T	0.618	0.59	0.568	0.497	0.484	0.311	0.351	0.305	0.336	0.313	0.352	0.342	0.332	0.371	0.384	1.2	1.25	1.19	1.2	1.24
A549																1.26	1.24	1.21	1.27	1.08
A-427	0.673	0.766	0.675	0.701	0.779	0.949	1.04	0.995	1.02	1	0.524	0.584	0.521	0.493	0.527	0.988	1.03	0.998	0.978	0.978
ABC-1	0.615	0.568		0.769	0.47							0.734	0.707	0.855	0.654					
BEN	0.322	0.353	0.395	0.303	0.324	0.65	0.914	0.781	0.851	0.698	0.525	0.507	0.47	0.425	0.463	0.05	0.0759	0.0381	0.213	0.0541
CAL-12T	0.462	0.388	0.413	0.474	0.376	1.37	1.14	1.25	1.19	1.09	0.435	0.583	0.408	0.497	0.572	1.51	1.2	1.37	1.17	1.46
COR-L23	0.507	0.561	0.482	0.55	0.555	0.215	0.197	0.191	0.185	0.193	0.299	0.295	0.29	0.391	0.297	1.07	1.16	1.03	0.973	0.931
COR-L 105	0.392	0.366	0.357	0.362	0.338	1.1	1.19	0.9	0.999	1.02	0.409	0.4	0.378	0.411	0.413	0.789	0.771		0.657	0.743
Calu-6																0.76	0.912	0.801	0.739	0.773
ChaGo-K-1	0.646	0.57	0.604	0.59	0.576	0.261	0.261	0.255	0.26	0.263	1.05	1.05	0.906	0.899	0.871	0.823	1.28	0.972	0.562	1.04
EBC-1																0.444	0.302	0.152	0.125	0.0913
EKVX	0.6	0.578	0.513	0.474	0.454	0.376	0.477	0.352	0.467	0.461	0.397	0.41	0.307	0.394	0.544	0.899	1.1	0.879	1.03	1.07
EMC-BAC-2	0.33	0.322	0.338	0.367	0.376	0.47	0.456	0.529	0.456	0.449	0.531	0.551	0.552	0.533	0.543	1.16	1.36	1.2	1.14	1.22
EPLC-272H	0.387	0.387	0.303	0.331	0.355	0.368	0.37	0.301	0.318	0.282	0.3	0.317	0.277	0.34	0.305	1.11	1.11	0.927	1.02	1.12
H3255	0.532	0.42	0.408	0.356	0.349	0.52	0.646		0.57	0.575	0.317	0.351		0.339	0.325	0.491	0.676		0.687	0.553
HARA	0.258	0.311	0.321	0.252	0.286	0.244	0.234		0.279	0.226	0.323	0.29	0.218	0.344	0.263	1.17	1.16	1.12	1.19	1.17
